Consider one molecule from PMC4876444, “Two-Photon Enzymatic Probes Visualizing Sub-cellular/Deep-brain Caspase Activities in Neurodegenerative Models” (Scientific Reports, 2016).

SMILES strings stand for the structures.

In series [1] the test system is NIH/3T3, BV2 and HeLa cells. The experiment in a line: XTT cytotoxicity assay. Conditions: XTT assay, 12, 30, 60, 120 μM, 24 h. The series is classed as cell-based, mouse, human. How it is done: Supplementary Figure 4. Cytotoxicity of two-photon enzymatic probes (12, 30, 60, 120 μM) in mammalian cells (NIH/3T3, BV2 and HeLa) after incubation for 24 h, as determined by XTT assay. […]
Detection of caspase activities in mammalian cells and tissues
Cell culture. The mouse embryonic fibroblast cell line (NIH/3T3), mouse microglial cell line (BV2) and human epithelial carcinoma cell line (HeLa) used in our experiments were cultured in Dulbecco’s Modified Eagle's Medium (DMEM) supplemented with 10% (for NIH/3T3 and HeLa) or 5% (for BV2) fetal bovine serum (FBS), 100.0 mg/L streptomycin and 100 IU/mL penicillin in a humidified atmosphere of 5% CO2 at 37 °C.
XTT assay. The cytotoxicity of our probes was determined by using the XTT colorimetric cell proliferation kit (Roche) following manufacturer’s guidelines. Briefly, NIH/3T3, BV2 and HeLa cells were seeded in 20~30% confluency (since they will reach >50% confluency within 24 h) into 96-well plates and incubated overnight before the addition of probes with concentrations of 12 μM, 30 μM, 60 μM and 120 μM, respectively. Probes were applied from DMSO stocks whereby DMSO never exceeded 1% in the final solution. The same volume of DMSO was used as a negative control; and the same volume of STS (200 nM) was used as a positive control. After a total treatment time of 24 h, proliferation was assayed using the XTT assay (Supplementary Fig. 4). […]
On the technique in general: Tetrazolium dyes change colour on reduction, which living cells bring about.

In series [2] the test system is caspase-3/-7-like activities in brain slices. Briefly: TPFM of caspase-3 activation in brain slices of ethanol-intoxicated mouse. The conditions noted are these: 200-μm-thick brain sections of ethanol-intoxicated 7-day-old C57BL/6 mice, probe 120 μM, 3 h, 37 °C, Z-axis scanning TPFM. How it is done:
Figure 4 Imaging endogenous caspase activities in deep tissues. (a) TPFM of caspase-3 activation in brain slices of ethanol-intoxicated 7-day-old C57BL/6 mouse using C3RA (120 μM, 3 h). Top: 3D images of the mouse brain slice taken along the Z-axis from 0 to 160 μm at 10x magnification. Bottom: images taken at a depth of 120 μm at 40x magnification. […]: control slices (saline-treated); panels 2/6/4/8: treated with caspase-3/7 inhibitor I (200 μM, 3 h). Scale bar = 50 μm. (b) RFU readings extracted from (a) (FTPFM, blue bars) versus those from in vitro enzymatic assays using lysates from the same brain slices (RFU, orange bars). The signal from saline controls was set as “0” and that from ethanol-treated samples was set as “1” in RFU quantification. Due to the base-level active caspase-3 in the saline controls, negative readings were shown with inhibitor-treated samples. (c) WB analysis of caspase-3/-1/-8 activation in lysates of the same mouse brain slices shown in (a). (d) Normalized RFU readings from in vitro enzymatic assays using brain lysates (300 μg) of saline/ethanol treated mice after incubation with C1RB/C3RA/C8RA (6 μM) for 1 h at 37 °C.
All two-photon images were taken on a Leica TCS SP5X Confocal Microscope System. […]

For `CC(=O)N[C@@H](CC(=O)O)C(=O)N[C@@H](CCC(=O)O)C(=O)N[C@H](C(=O)N[C@@H](CC(=O)O)C(=O)Nc1ccc2cc(C(C)=O)ccc2c1)C(C)C` [C3RA, Ac-DEVD-AAN], in series [1], the cytotoxicity entry is on record as “minimally cytotoxic”. Also, the “tissue depth of detection of caspase-3/-7-like activities” value in series [2] is given as no more than 160 μm.
